Measured values published in patent US9255071B2, “Compounds having antibacterial activity, process for their preparation and pharmaceutical compositions comprising them” (Consejo Nacional de Investigaciones Cientificas y Técnicas …, priority 2012, dated 2016).
In brackets after ≈: the same amount, converted by molar mass. One block for each molecule: values may come before it.

What was measured:
Acinetobacter guillouiae = Acinetobacter guillouiae ATCC 11171; reference antibiotic according to WHONET; in µg/mL; cited from earlier work
Shigella boydii [1] = assay: Determination of the Minimum Inhibitory Concentration, S. boydii; type: cell-based; conditions: ATCC12027, S. boydii (ATCC 12027), 24 h incubation, 1×10^5 CFU/ml inoculum
Description: (§1) The Minimum Inhibitory Concentration (MIC), which is defined as the lowest antimicrobial agent concentration inhibiting the visible growth of a microorganism following its incubation, was subsequently determined.
(§2) For the purpose of such determination, the compounds under study were tested on the strains listed in Table 3 with the antibiotics (AB) stated as reference in the table.
(§3) The test was conducted on a plate on the basis of a 1×10^5 CFU/ml inoculum concentration, with negative, positive and sterility controls being simultaneously performed. Different concentrations of the compounds under study were tested, as shown on the last column included in Table 3 (working solution).
(§4) Following incubation at 32.5±2.5° C. for a 24 h period (48 h in the case of C. sporogenes and 72 h in the case of M. smegmatis), the plates were visually read. The appearance of turbidity and/or the formation of a growth point at the microtube bottom were held as a positive result.

Shigella flexneri [2] = assay: Determination of the Minimum Inhibitory Concentration, S. flexneri; type: cell-based; conditions: ATCC11836, S. flexneri (ATCC 11836), 24 h incubation, 1×10^5 CFU/ml inoculum
Description: as §1, §2, §3, §4

Staphylococcus Aureus = Staphylococcus Aureus ATCC 29737; reference antibiotic according to WHONET; in µg/mL; cited from earlier work
Enterococcus faecalis = Enterococcus faecalis ATCC 29212; reference antibiotic according to WHONET; in µg/mL; cited from earlier work
Mycobacterium smegmatis = assay: Determination of the Minimum Inhibitory Concentration, M. smegmatis; type: cell-based; conditions: Mycolicibacterium smegmatis, ATCC607; M. smegmatis (ATCC 607), 72 h incubation, 1×10^5 CFU/ml inoculum
Description: as §1, §2, §3, §4

Clostridium sporogenes = assay: Determination of the Minimum Inhibitory Concentration, C. sporogenes; type: cell-based; conditions: ATCC19404, C. sporogenes (ATCC 19404), 48 h incubation, 1×10^5 CFU/ml inoculum
Description: as §1, §2, §3, §4

Streptococcus pneumoniae [3] = assay: Determination of the Minimum Inhibitory Concentration, S. pneumoniae; type: cell-based; conditions: ATCC10015, S. pneumoniae (ATCC 10015), 24 h incubation, 1×10^5 CFU/ml inoculum
Description: as §1, §2, §3, §4

Shigella boydii [4] = test system: Shigella boydii; parameters: unit not given beside the values; conditions: Shigella boydii ATCC 12027; reference antibiotic according to WHONET; cited from earlier work
Shigella flexneri [5] = test system: Shigella flexneri; parameters: unit not given beside the values; conditions: Shigella flexneri ATCC 11836; reference antibiotic according to WHONET; cited from earlier work
Streptococcus pneumoniae [6] = conditions: Streptococcus pneumoniae ATCC 10015; reference antibiotic according to WHONET; cited from earlier work

SMILES: CN(C)c1ccc(O)c2c1C[C@H]1C[C@H]3[C@H](N(C)C)C(O)=C(C(N)=O)C(=O)[C@@]3(O)C(O)=C1C2=O [Minocyclin]
MIC (for WHO antibiotics) (Acinetobacter guillouiae): 0.06-8.0

SMILES: COc1ccc(/C=C/C(=O)NC(C)C)cc1O [compound 10]
MIC (Shigella boydii [1]): 32 µg/mL (≈ 136 µM) | MIC (Shigella flexneri [2]): 32 µg/mL (≈ 136 µM)

SMILES: CN[C@H](CC(C)C)C(=O)N[C@H]1C(=O)N[C@@H](CC(N)=O)C(=O)N[C@H]2C(=O)N[C@H]3C(=O)N[C@H](C(=O)N[C@H](C(=O)O)c4cc(O)cc(O)c4-c4cc3ccc4O)[C@H](O)c3ccc(c(Cl)c3)Oc3cc2cc(c3O[C@@H]2O[C@H](CO)[C@@H](O)[C@H](O)[C@H]2O[C@H]2C[C@](C)(N)[C@H](O)[C@H](C)O2)Oc2ccc(cc2Cl)[C@H]1O [Vancomycin]
MIC (for WHO antibiotics) (Staphylococcus Aureus): 0.5-2.0 | MIC (for WHO antibiotics) (Enterococcus faecalis): 1.0-4.0

SMILES: COc1ccc(C=CC(=O)N2CCOCC2)cc1C(F)F [Example 12, N-[3-(difluoromethyl)-4-methoxy-cinnamoyl]morpholine]
melting point: 119 °C

SMILES: COc1ccc(/C=C/C(=O)NNC(=O)c2ccncc2)cc1C(F)F [compound 4]
MIC (Mycobacterium smegmatis): 64 µg/mL (≈ 184 µM) | MIC (Clostridium sporogenes): 64 µg/mL (≈ 184 µM)

SMILES: COc1ccc(C=CC(=O)N2CCN(C(=O)C=Cc3ccc(OC)c(C(F)F)c3)CC2)cc1C(F)F [Example 6, N,N′-bis[3-(difluoromethyl)-4-methoxy-cinnamoyl]piperazine]
melting point: 259 to 261 °C

SMILES: COc1ccc(/C=C/C(=O)NCCCNC(=O)/C=C/c2ccc(OC)c(C(F)F)c2)cc1C(F)F [compound 7]
MIC (Streptococcus pneumoniae [3]): 64 µg/mL (≈ 129 µM)

SMILES: COc1ccc(/C=C/C(=O)NC(C)C)cc1 [compound 8]
MIC (Mycobacterium smegmatis): 32 µg/mL (≈ 146 µM)

SMILES: C[C@@H]1O[C@@H]1P(=O)(O)O [Phosphomycin]
MIC (for WHO antibiotics) (Shigella boydii [4]): ≦4.0 | MIC (for WHO antibiotics) (Shigella flexneri [5]): ≦4.0

SMILES: CC1(C)S[C@@H]2[C@H](NC(=O)[C@H](N)c3ccccc3)C(=O)N2[C@H]1C(=O)O [Ampicillin (sodium), Ampicillin]
MIC (for WHO antibiotics) (Streptococcus pneumoniae [6]): ≦0.5

The remaining lines, values ahead:

MIC (Mycobacterium smegmatis): 64 µg/mL (≈ 215 µM)
SMILES: CC(=O)Oc1ccc(/C=C/C(=O)NC(C)C)cc1C(F)F [entry 3]

MIC (Mycobacterium smegmatis): 8 µg/mL (≈ 29.7 µM)
SMILES: COc1ccc(/C=C/C(=O)NC(C)C)cc1C(F)F [compound 2]

MIC (Mycobacterium smegmatis): 64 µg/mL (≈ 211 µM)
SMILES: COc1ccc(/C=C/C(=O)Nc2ccccc2)cc1C(F)F [compound 1]

MIC (Streptococcus pneumoniae [3]): 64 µg/mL (≈ 215 µM) | MIC (Mycobacterium smegmatis): 8 µg/mL (≈ 26.9 µM)
SMILES: COc1ccc(/C=C/C(=O)NCCC(C)C)cc1C(F)F [compound 6]

MIC (Mycobacterium smegmatis): 32 µg/mL (≈ 137 µM)
SMILES: COc1ccc(/C=C/C(=O)NC(C)C)cc1C [compound 9]

MIC (Mycobacterium smegmatis): 32 µg/mL (≈ 113 µM)
SMILES: COc1ccc(/C=C/C(=O)NCC(C)C)cc1C(F)F [compound 5]
